The data set concerns GENE-TOX genotoxicity assays, various organisms and cells. Description: GENE-TOX mutagenicity studies. To be noted: for call: Assay Type: In vivo carcinogenicity studies, Assay Code: CCG+.
Setting [1] is: Species/Cell Type: Chinese hamster lung (V79) cells, Assay Type: Forward gene mutation at the HPRT or ouabain locus, Assay Code: V79+, Evaluation Type: Evaluation A (Pre-1980).
[2] abbreviates: Species/Cell Type: Drosophila melanogaster, Assay Type: Sex-linked recessive lethal gene mutation, Assay Code: SRL+, Evaluation Type: Evaluation A (Pre-1980).
Where [3] appears, read: Species/Cell Type: Neurospora crassa, Assay Type: Forward gene mutation, Assay Code: NEF+, Evaluation Type: Evaluation A (Pre-1980).
Where [4] appears, read: Species/Cell Type: Nonhuman, Evaluation Type: Evaluation A (Pre-1980).
Setting [5] is: Species/Cell Type: Nonhuman, Assay Type: Sister-chromatid exchange (SCE) in vitro, Assay Code: SC2+D, Dose Response: With dose response, Evaluation Type: Evaluation A (Pre-1980).
Where [6] appears, read: Species/Cell Type: Nonhuman, Assay Type: Sister-chromatid exchange (SCE) in vivo, Assay Code: SC3+, Evaluation Type: Evaluation B (Post-1980).
Where [7] appears, read: Species/Cell Type: Rat primary hepatocytes, Assay Type: Unscheduled DNA synthesis (UDS) in vitro, DNA effects, Assay Code: UDP+, Evaluation Type: Evaluation A (Pre-1980).
Where [8] appears, read: Species/Cell Type: Saccharomyces cerevisiae, Assay Type: Mitotic recombination or gene conversion, Assay Code: YEH+, Evaluation Type: Evaluation A (Pre-1980).

Calls of active or inactive are those of the source. The rule behind the calls is not given here.

`CCN(CC)N=O`: the mutagenic call is “active; positive” under setting [1]; “active; positive” (Species/Cell Type: Chinese hamster ovary (CHO) cells, Assay Type: Forward gene mutation at the HPRT locus, Assay Code: CHO+*, Activation: With metabolic activation, Evaluation Type: Evaluation B (Post-1980)); “active; positive” under setting [2]; “no conclusion” (Species/Cell Type: Drosophila melanogaster, Sex: Male, Assay Type: Heritable translocation test, chromosome aberrations, Assay Code: DHTT, Evaluation Type: Evaluation A (Pre-1980)); “active; positive” (Species/Cell Type: Escherichia coli polA (W3110 vs P3478), Assay Type: Rec-assay, DNA effects (bacterial DNA repair), Assay Code: RE2+, Evaluation Type: Evaluation A (Pre-1980)); “inactive; negative” (Species/Cell Type: Escherichia coli polA (W3119 vs P3478), Assay Type: Rec-assay, DNA effects (bacterial DNA repair), Assay Code: RE1-, Evaluation Type: Evaluation A (Pre-1980)). The mutagenic call runs as follows: (Species/Cell Type: Fischer rat embryo (RLV/1706) cells, Assay Type: Cell transformation, viral enhanced, Assay Code: CTR+, Evaluation Type: Evaluation A (Pre-1980)) “active; positive”; (Species/Cell Type: Human diploid fibroblasts, Assay Type: Unscheduled DNA synthesis (UDS) in vitro, DNA effects, Assay Code: UDHT, Evaluation Type: Evaluation A (Pre-1980)) “no conclusion”; (Species/Cell Type: Human lymphocytes, Assay Type: Sister-chromatid exchange (SCE) in vitro, Assay Code: SCL+D*, Activation: With metabolic activation, Dose Response: With dose response, Evaluation Type: Evaluation B (Post-1980)) “active; positive”; (Species/Cell Type: Human lymphocytes, Assay Type: Sister-chromatid exchange (SCE) in vitro, Assay Code: SCL-, Evaluation Type: Evaluation A (Pre-1980)) “inactive; negative”; (Species/Cell Type: Human, Assay Type: Sister-chromatid exchange (SCE) in vitro, Assay Code: SC1+D*, Activation: With metabolic activation, Dose Response: With dose response, Evaluation Type: Evaluation B (Post-1980)) “active; positive”; (Species/Cell Type: Human, Assay Type: Sister-chromatid exchange (SCE) in vitro, Assay Code: SC1-, Evaluation Type: Evaluation A (Pre-1980)) “inactive; negative”. Besides, the mutagenic call (Species/Cell Type: Mammalian polychromatic erythrocytes, Assay Type: Micronucleus test, chromosome aberrations, Assay Code: MNTT, Evaluation Type: Evaluation A (Pre-1980)) is listed as “no conclusion”; the mutagenic call (Species/Cell Type: Mouse germ cells, Sex: Male, Assay Type: Unscheduled DNA synthesis (UDS) in vivo, DNA effects, Assay Code: UDT-, Evaluation Type: Evaluation A (Pre-1980)) is “inactive; negative”; the mutagenic call (Species/Cell Type: Mouse lymphoma (L5178Y) cells, Assay Type: Forward gene mutation at the thymidine kinase (TK) locus, chromosome aberrations, Assay Code: L51+*, Activation: With metabolic activation, Evaluation Type: Evaluation A (Pre-1980)) is “active; positive”; the mutagenic call (Species/Cell Type: Mouse, Sex: Female, Assay Type: Spot test, gene mutation, Assay Code: MST-, Evaluation Type: Evaluation A (Pre-1980)) was “inactive; negative”; the mutagenic call (Species/Cell Type: Mouse, Sex: Male, Assay Type: Specific locus test, gene mutation, Assay Code: SLT-, Evaluation Type: Evaluation A (Pre-1980)) is “inactive; negative”; the mutagenic call under setting [3] was “active; positive”. The mutagenic call by setting is: (Species/Cell Type: Neurospora crassa, Assay Type: Reverse gene mutation, Assay Code: NER+, Evaluation Type: Evaluation A (Pre-1980)) “active; positive”; (Species/Cell Type: Nonhuman, Assay Type: Chromosome aberrations in vitro, Assay Code: CY&+*, Activation: With metabolic activation, Evaluation Type: Evaluation A (Pre-1980)) “active; positive”; under setting [5], “active; positive”; under setting [6], “active; positive”; (Species/Cell Type: Nonhuman, Assay Type: Sister-chromatid exchange (SCE) in vivo, Assay Code: SC3+D, Dose Response: With dose response, Evaluation Type: Evaluation A (Pre-1980)) “active; positive”; under setting [7], “active; positive”. Besides, the mutagenic call was “inactive; negative” (Species/Cell Type: Rodents, Sex: Male, Assay Type: Dominant lethal test, Assay Code: DLT-, Evaluation Type: Evaluation A (Pre-1980)); “active; positive” (Species/Cell Type: Saccharomyces cerevisiae, Assay Type: Forward gene mutation, Assay Code: YEF+*, Activation: With metabolic activation, Evaluation Type: Evaluation A (Pre-1980)); “active; positive” under setting [8]; “active; positive” (Species/Cell Type: Salmonella typhimurium (one or more of the five standard strains: TA98, TA100, TA1535, TA1537, and TA1538), Assay Type: Histidine reverse gene mutation, Ames assay, Assay Code: SAL+*, Activation: With metabolic activation, Evaluation Type: Evaluation A (Pre-1980)); “active; positive” (Species/Cell Type: Salmonella typhimurium, Escherichia coli, Serratia marcesens, Chinese hamster lung (V79) cells, Assay Type: Forward and reverse gene mutation, host-mediated assay, Assay Code: HM1+, Evaluation Type: Evaluation A (Pre-1980)); “active; positive” (Species/Cell Type: Syrian hamster embryo (SHE) cells, Assay Type: Cell transformation, clonal assay, Assay Code: CTC+*, Activation: With metabolic activation, Evaluation Type: Evaluation A (Pre-1980)). In addition, the call under setting [4] was “active; positive”.
Take `COc1cc2c(c3oc(=O)c4c(c13)CCC4=O)[C@@H]1C=CO[C@@H]1O2`: the mutagenic call by setting is: (Species/Cell Type: Bacillus subtilis (H17 vs M45), Assay Type: Rec-assay, spot test, DNA effects (bacterial DNA repair), Assay Code: REW+, Evaluation Type: Evaluation A (Pre-1980)) “active; positive”; under setting [1], “active; positive”; under setting [2], “active; positive”; (Species/Cell Type: Escherichia coli polA (W3119 vs P3478), Assay Type: Rec-assay, DNA effects (bacterial DNA repair), Assay Code: RE1+, Evaluation Type: Evaluation A (Pre-1980)) “active; positive”; (Species/Cell Type: Human diploid fibroblasts, Assay Type: Unscheduled DNA synthesis (UDS) in vitro, DNA effects, Assay Code: UDH+D*, Activation: With metabolic activation, Dose Response: With dose response, Evaluation Type: Evaluation A (Pre-1980)) “active; positive”; (Species/Cell Type: Human lymphocytes, Assay Type: Sister-chromatid exchange (SCE) in vitro, Assay Code: SCL+D, Dose Response: With dose response, Evaluation Type: Evaluation A (Pre-1980)) “active; positive”. Also, the mutagenic call by setting is: (Species/Cell Type: Human lymphocytes, Assay Type: Sister-chromatid exchange (SCE) in vitro, Assay Code: SCL+D, Dose Response: With dose response, Evaluation Type: Evaluation B (Post-1980)) “active; positive”; (Species/Cell Type: Human, Assay Type: Sister-chromatid exchange (SCE) in vitro, Assay Code: SC1+D, Dose Response: With dose response, Evaluation Type: Evaluation A (Pre-1980)) “active; positive”; (Species/Cell Type: Human, Assay Type: Sister-chromatid exchange (SCE) in vitro, Assay Code: SC1+D, Dose Response: With dose response, Evaluation Type: Evaluation B (Post-1980)) “active; positive”; (Species/Cell Type: Mammalian germ cells, Sex: Male, Assay Type: Chromosome aberrations in vivo, Assay Code: CY9T, Evaluation Type: Evaluation A (Pre-1980)) “no conclusion”; (Species/Cell Type: Mammalian polychromatic erythrocytes, Assay Type: Micronucleus test, chromosome aberrations, Assay Code: MNT+, Evaluation Type: Evaluation A (Pre-1980)) “active; positive”; (Species/Cell Type: Mouse, Sex: Male, Assay Type: Sperm morphology, Assay Code: SPI-, Evaluation Type: Evaluation A (Pre-1980)) “inactive; negative”. Also, the mutagenic call is, setting by setting: under setting [3], “active; positive”; (Species/Cell Type: Nonhuman, Assay Type: Chromosome aberrations in vitro, Assay Code: CY&+, Evaluation Type: Evaluation A (Pre-1980)) “active; positive”; under setting [5], “active; positive”; (Species/Cell Type: Nonhuman, Assay Type: Sister-chromatid exchange (SCE) in vitro, Assay Code: SC2+D, Dose Response: With dose response, Evaluation Type: Evaluation B (Post-1980)) “active; positive”; (Species/Cell Type: Nonhuman, Assay Type: Sister-chromatid exchange (SCE) in vivo, Assay Code: SC3+, Evaluation Type: Evaluation A (Pre-1980)) “active; positive”; under setting [6], “active; positive”. In addition, the mutagenic call was “active; positive” under setting [7]; “inactive; negative” (Species/Cell Type: Rat, Sex: Male, Assay Type: Sperm morphology, Assay Code: SPA-, Evaluation Type: Evaluation A (Pre-1980)); “active; positive” (Species/Cell Type: Saccharomyces cerevisiae, Assay Type: Mitotic recombination or gene conversion, Assay Code: YEC+, Evaluation Type: Evaluation A (Pre-1980)); “active; positive” under setting [8]; “active; positive” (Species/Cell Type: Salmonella typhimurium (one or more of the five standard strains: TA98, TA100, TA1535, TA1537, and TA1538), Assay Type: Histidine reverse gene mutation, Ames assay, Assay Code: SAL+, Evaluation Type: Evaluation A (Pre-1980)); “active; positive” (Species/Cell Type: Salmonella typhimurium, Assay Type: Forward and reverse gene mutation, body fluid assay, Assay Code: BFU+, Evaluation Type: Evaluation A (Pre-1980)). Besides, the mutagenic call (Species/Cell Type: Salmonella typhimurium, Assay Type: Forward and reverse gene mutation, host-mediated assay, Assay Code: HMA+, Evaluation Type: Evaluation A (Pre-1980)) is “active; positive”; the mutagenic call (Species/Cell Type: Syrian hamster embryo (SA7/SHE) cells, Assay Type: Cell transformation, viral enhanced, Assay Code: CT7+, Evaluation Type: Evaluation A (Pre-1980)) was “active; positive”; the mutagenic call (Species/Cell Type: Syrian hamster embryo (SHE) cells, Assay Type: Cell transformation, clonal assay, Assay Code: CTC+D, Dose Response: With dose response, Evaluation Type: Evaluation A (Pre-1980)) is “active; positive”; the mutagenic call (Species/Cell Type: Syrian hamster embryo (SHE) cells, Assay Type: Cell transformation, focus assay, Assay Code: CTF+, Evaluation Type: Evaluation A (Pre-1980)) is “active; positive”. Besides, the call under setting [4] is “active; positive”.
As to `O=c1[nH]c(=O)c2[nH]cnc2[nH]1`, the mutagenic call (Species/Cell Type: Drosophila melanogaster, Assay Type: Sex-linked recessive lethal gene mutation, Assay Code: SRLT, Evaluation Type: Evaluation A (Pre-1980)) was “no conclusion”.

These data come from PubChem BioAssay AID1259408 (Genetic Toxicology Data Bank (GENE-TOX), 2018).
